Assay results taken from ChEMBL document CHEMBL4004883, “Biologically active perspective synthesis of heteroannulated 8-nitroquinolines with green chemistry approach” (Bioorg Med Chem Lett, 2017).
Values after ≈ are worked out from the molar mass of the structure shown. Blank lines part the entries; values can stand above or below the compound they belong to.

Assays:
[1] = Antioxidant activity assessed as assessed as ferric ion reducing activity by measuring absorbance at 700 nm at 60 ug/ml after 20 mins by spectrophotometric method; format: functional
[2] = Antioxidant activity assessed as DPPH radical scavenging activity after 20 mins by UV/VIS Spectrophotometric method; format: functional
Bacillus subtilis [3] = experiment: Antibacterial activity against Bacillus subtilis MTCC 121 at 100 ug incubated for 24 hrs under dark condition by agar well diffusion method; format: functional; details: MTCC 121, 24 h, read-out: IZ
[4] = Antioxidant activity assessed as assessed as ferric ion reducing activity by measuring absorbance at 700 nm at 100 ug/ml after 20 mins by spectrophotometric method; format: functional
A549 = experiment: Cytotoxicity against human A549 cells assessed as decrease in cell viability after 48 hrs by MTT assay; format: functional, cell-based; details: A549, 48 h
[5] = Antioxidant activity assessed as total antioxidant capacity measured as ascorbic acid equivalents at 100 ug/ml after 90 mins by phosphomolybdenum method; format: functional
Pseudomonas aeruginosa [6] = experiment: Antibacterial activity against Pseudomonas aeruginosa MTCC 102 at 100 ug incubated for 24 hrs under dark condition by agar well diffusion method; format: functional; details: MTCC 102, 24 h, read-out: IZ
[7] = Antioxidant activity assessed as assessed as ferric ion reducing activity by measuring absorbance at 700 nm at 20 ug/ml after 20 mins by spectrophotometric method; format: functional
Staphylococcus aureus [8] = experiment: Antibacterial activity against Staphylococcus aureus MTCC 96 incubated for 24 hrs under dark condition by microwell dilution method; format: functional; details: MTCC 96, 24 h
[9] = Antioxidant activity assessed as total antioxidant capacity measured as ascorbic acid equivalents at 20 ug/ml after 90 mins by phosphomolybdenum method; format: functional
MCF7 = experiment: Cytotoxicity against human MCF7 cells assessed as decrease in cell viability after 48 hrs by MTT assay; format: functional, cell-based; details: MCF7, 48 h
[10] = Antioxidant activity assessed as total antioxidant capacity measured as ascorbic acid equivalents at 60 ug/ml after 90 mins by phosphomolybdenum method; format: functional
Bacillus subtilis [11] = experiment: Antibacterial activity against Bacillus subtilis MTCC 121 incubated for 24 hrs under dark condition by microwell dilution method; format: functional; details: MTCC 121, 24 h
Staphylococcus aureus [12] = experiment: Antibacterial activity against Staphylococcus aureus MTCC 96 at 100 ug incubated for 24 hrs under dark condition by agar well diffusion method; format: functional; details: MTCC 96, 24 h, read-out: IZ
Escherichia coli [13] = experiment: Antibacterial activity against Escherichia coli MTCC 1652 at 100 ug incubated for 24 hrs under dark condition by agar well diffusion method; format: functional; details: MTCC 1652, 24 h, read-out: IZ
Pseudomonas aeruginosa [14] = experiment: Antibacterial activity against Pseudomonas aeruginosa MTCC 102 incubated for 24 hrs under dark condition by microwell dilution method; format: functional; details: MTCC 102, 24 h
Escherichia coli [15] = experiment: Antibacterial activity against Escherichia coli MTCC 1652 incubated for 24 hrs under dark condition by microwell dilution method; format: functional; details: MTCC 1652, 24 h

Structure (SMILES): O=[N+]([O-])c1cccc2c1NCC1C2=NN(c2ccccc2)C1c1ccccc1 (stereo unspecified)
OD [1]: 0.08
IC50 [2]: 146.85 µg/mL (≈ 396 µM)
zone of inhibition at 100 µg/disc (Bacillus subtilis [3]): 8 mm
OD [4]: 0.096
IC50 (A549): 59.8 µM
Activity [5]: 14.9 µgequiv/ml
zone of inhibition at 100 µg/disc (Pseudomonas aeruginosa [6]): 14 mm
OD [7]: 0.075
MIC (Staphylococcus aureus [8]): 60 µg/mL (≈ 162 µM)
Activity [9]: 5.18 µgequiv/ml
IC50 (MCF7): 53.4 µM
Activity [10]: 10.8 µgequiv/ml
MIC (Bacillus subtilis [11]): 60 µg/mL (≈ 162 µM)
zone of inhibition at 100 µg/disc (Staphylococcus aureus [12]): 8 mm
zone of inhibition at 100 µg/disc (Escherichia coli [13]): 12 mm
MIC (Pseudomonas aeruginosa [14]): 150 µg/mL (≈ 405 µM)
MIC (Escherichia coli [15]): 60 µg/mL (≈ 162 µM)

Structure (SMILES): O=[N+]([O-])c1cc(Cl)cc2c1NCC1C2=NNC1c1ccc(Cl)cc1 (stereo unspecified)
OD [1]: 0.083
IC50 [2]: 169.33 µg/mL (≈ 466 µM)
zone of inhibition at 100 µg/disc (Bacillus subtilis [3]): 10 mm
OD [4]: 0.091
IC50 (A549): 95.1 µM
Activity [5]: 11.8 µgequiv/ml
zone of inhibition at 100 µg/disc (Pseudomonas aeruginosa [6]): 14 mm
OD [7]: 0.072
MIC (Staphylococcus aureus [8]): 55 µg/mL (≈ 151 µM)
Activity [9]: 3.47 µgequiv/ml
IC50 (MCF7): 78.5 µM
Activity [10]: 6.27 µgequiv/ml
MIC (Bacillus subtilis [11]): 60 µg/mL (≈ 165 µM)
zone of inhibition at 100 µg/disc (Staphylococcus aureus [12]): 13 mm
zone of inhibition at 100 µg/disc (Escherichia coli [13]): 8 mm
MIC (Pseudomonas aeruginosa [14]): 100 µg/mL (≈ 275 µM)
MIC (Escherichia coli [15]): 97.5 µg/mL (≈ 268 µM)

Structure (SMILES): Cc1ccc(C2C(C#N)=C(N)OC3=C2CNc2c3cccc2[N+](=O)[O-])cc1 (stereo unspecified)
OD [1]: 0.111
IC50 [2]: 183.1 µg/mL (≈ 508 µM)
zone of inhibition at 100 µg/disc (Bacillus subtilis [3]): 12 mm
OD [4]: 0.163
IC50 (A549): 56.3 µM
Activity [5]: 8.15 µgequiv/ml
zone of inhibition at 100 µg/disc (Pseudomonas aeruginosa [6]): 15 mm
OD [7]: 0.09
MIC (Staphylococcus aureus [8]): 55 µg/mL (≈ 153 µM)
Activity [9]: 1.82 µgequiv/ml
IC50 (MCF7): 34.1 µM
Activity [10]: 4.43 µgequiv/ml
MIC (Bacillus subtilis [11]): 50 µg/mL (≈ 139 µM)
zone of inhibition at 100 µg/disc (Staphylococcus aureus [12]): 13 mm
zone of inhibition at 100 µg/disc (Escherichia coli [13]): 18 mm
MIC (Pseudomonas aeruginosa [14]): 55.5 µg/mL (≈ 154 µM)
MIC (Escherichia coli [15]): 25.5 µg/mL (≈ 70.8 µM)

Structure (SMILES): COc1ccc(C2C(C#N)=C(N)OC3=C2CNc2c3cccc2[N+](=O)[O-])cc1OC (stereo unspecified)
OD [1]: 0.111
IC50 [2]: 124.38 µg/mL (≈ 306 µM)
zone of inhibition at 100 µg/disc (Bacillus subtilis [3]): 15 mm
OD [4]: 0.157
IC50 (A549): 50.6 µM
Activity [5]: 13.7 µgequiv/ml
zone of inhibition at 100 µg/disc (Pseudomonas aeruginosa [6]): 13 mm
OD [7]: 0.078
MIC (Staphylococcus aureus [8]): 40 µg/mL (≈ 98.4 µM)
Activity [9]: 4.04 µgequiv/ml
IC50 (MCF7): 56.3 µM
Activity [10]: 9.51 µgequiv/ml
MIC (Bacillus subtilis [11]): 20 µg/mL (≈ 49.2 µM)
zone of inhibition at 100 µg/disc (Staphylococcus aureus [12]): 14 mm
zone of inhibition at 100 µg/disc (Escherichia coli [13]): 12 mm
MIC (Pseudomonas aeruginosa [14]): 150 µg/mL (≈ 369 µM)
MIC (Escherichia coli [15]): 80.5 µg/mL (≈ 198 µM)

Structure (SMILES): COc1ccc(C2C3CNc4c(cccc4[N+](=O)[O-])C3=NN2c2ccccc2)cc1 (stereo unspecified)
OD [1]: 0.134
IC50 [2]: 138.8 µg/mL (≈ 347 µM)
zone of inhibition at 100 µg/disc (Bacillus subtilis [3]): 17 mm
OD [4]: 0.192
IC50 (A549): 40.2 µM
Activity [5]: 14.3 µgequiv/ml
zone of inhibition at 100 µg/disc (Pseudomonas aeruginosa [6]): 10 mm
OD [7]: 0.091
MIC (Staphylococcus aureus [8]): 17.5 µg/mL (≈ 43.7 µM)
Activity [9]: 4.95 µgequiv/ml
IC50 (MCF7): 31.3 µM
Activity [10]: 10.5 µgequiv/ml
MIC (Bacillus subtilis [11]): 20 µg/mL (≈ 49.9 µM)
zone of inhibition at 100 µg/disc (Staphylococcus aureus [12]): 15 mm
zone of inhibition at 100 µg/disc (Escherichia coli [13]): 14 mm
MIC (Pseudomonas aeruginosa [14]): 200 µg/mL (≈ 499 µM)
MIC (Escherichia coli [15]): 42.5 µg/mL (≈ 106 µM)

The next lines start with results.

IC50 [2]: 65.42 µg/mL (≈ 174 µM)
MIC (Staphylococcus aureus [8]): 10 µg/mL (≈ 26.6 µM)
MIC (Bacillus subtilis [11]): 12.5 µg/mL (≈ 33.2 µM)
MIC (Pseudomonas aeruginosa [14]): 37 µg/mL (≈ 98.3 µM)
MIC (Escherichia coli [15]): 17 µg/mL (≈ 45.2 µM)
Structure (SMILES): COc1ccc(C2C(C#N)=C(N)OC3=C2CNc2c3cccc2[N+](=O)[O-])cc1 (stereo unspecified)
OD [1]: 0.211
zone of inhibition at 100 µg/disc (Bacillus subtilis [3]): 20 mm
OD [4]: 0.368
IC50 (A549): 35.6 µM
Activity [5]: 23.2 µgequiv/ml
zone of inhibition at 100 µg/disc (Pseudomonas aeruginosa [6]): 21 mm
OD [7]: 0.109
Activity [9]: 7.55 µgequiv/ml
IC50 (MCF7): 16.8 µM
Activity [10]: 15.1 µgequiv/ml
zone of inhibition at 100 µg/disc (Staphylococcus aureus [12]): 21 mm
zone of inhibition at 100 µg/disc (Escherichia coli [13]): 20 mm

IC50 [2]: 170.8 µg/mL (≈ 373 µM)
MIC (Staphylococcus aureus [8]): 10 µg/mL (≈ 21.8 µM)
MIC (Bacillus subtilis [11]): 7.5 µg/mL (≈ 16.4 µM)
MIC (Pseudomonas aeruginosa [14]): 55.5 µg/mL (≈ 121 µM)
MIC (Escherichia coli [15]): 34 µg/mL (≈ 74.2 µM)
Structure (SMILES): CCOc1ccc(C2C3CNc4c(cccc4[N+](=O)[O-])C3=NN2c2ccccc2)c(OCC)c1 (stereo unspecified)
OD [1]: 0.085
zone of inhibition at 100 µg/disc (Bacillus subtilis [3]): 23 mm
OD [4]: 0.098
IC50 (A549): 50.9 µM
Activity [5]: 9.47 µgequiv/ml
zone of inhibition at 100 µg/disc (Pseudomonas aeruginosa [6]): 18 mm
OD [7]: 0.068
Activity [9]: 2.46 µgequiv/ml
IC50 (MCF7): 65.7 µM
Activity [10]: 5.75 µgequiv/ml
zone of inhibition at 100 µg/disc (Staphylococcus aureus [12]): 19 mm
zone of inhibition at 100 µg/disc (Escherichia coli [13]): 19 mm

IC50 [2]: 132.65 µg/mL (≈ 319 µM)
MIC (Staphylococcus aureus [8]): 17.5 µg/mL (≈ 42.1 µM)
MIC (Bacillus subtilis [11]): 17.5 µg/mL (≈ 42.1 µM)
MIC (Pseudomonas aeruginosa [14]): 55.5 µg/mL (≈ 134 µM)
MIC (Escherichia coli [15]): 25.5 µg/mL (≈ 61.4 µM)
Structure (SMILES): N#CC1=C(N)OC2=C(CNc3c2cc(Cl)cc3[N+](=O)[O-])C1c1ccc(Cl)cc1 (stereo unspecified)
OD [1]: 0.125
zone of inhibition at 100 µg/disc (Bacillus subtilis [3]): 18 mm
OD [4]: 0.156
IC50 (A549): 25.5 µM
Activity [5]: 13 µgequiv/ml
zone of inhibition at 100 µg/disc (Pseudomonas aeruginosa [6]): 16 mm
OD [7]: 0.093
Activity [9]: 3.67 µgequiv/ml
IC50 (MCF7): 18 µM
Activity [10]: 7.08 µgequiv/ml
zone of inhibition at 100 µg/disc (Staphylococcus aureus [12]): 15 mm
zone of inhibition at 100 µg/disc (Escherichia coli [13]): 18 mm
